Key:
[1] = Apparent dissociation constant of compound was evaluated; type: ADME
Acetylcholinesterase [2] = molecular target: T1, Acetylcholinesterase (Homo sapiens, UniProt P22303)
Description: Inhibitory concentration against acetylcholinesterase from human erythrocytes

Cholinesterase = Cholinesterase (Homo sapiens, UniProt P06276)
Description: Inhibitory concentration against butyrylcholinesterase from human serum

[3] = molecular target: T2, Muscarinic acetylcholine receptor M2 (Homo sapiens) (UniProt P08172); test: Antagonistic potency of compound towards Muscarinic acetylcholine receptor M2 in guinea pig left atrium; type: functional, tissue-based; conditions: Cavia porcellus; Cardiac atrium; target entry is the homologue from another species
T2 sequence (whole entry): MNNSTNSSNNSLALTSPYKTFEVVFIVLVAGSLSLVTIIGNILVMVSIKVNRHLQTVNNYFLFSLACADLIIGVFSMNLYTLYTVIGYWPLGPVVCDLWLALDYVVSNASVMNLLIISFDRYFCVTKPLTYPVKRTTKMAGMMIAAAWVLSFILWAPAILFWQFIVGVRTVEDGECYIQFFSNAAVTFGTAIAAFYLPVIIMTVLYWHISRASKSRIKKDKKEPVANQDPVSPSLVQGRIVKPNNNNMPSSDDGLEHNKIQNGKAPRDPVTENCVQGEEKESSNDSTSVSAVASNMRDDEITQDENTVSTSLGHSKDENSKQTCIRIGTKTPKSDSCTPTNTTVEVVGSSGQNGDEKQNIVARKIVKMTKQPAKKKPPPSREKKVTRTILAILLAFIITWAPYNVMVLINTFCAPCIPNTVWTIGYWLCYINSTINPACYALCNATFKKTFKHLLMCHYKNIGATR

Acetylcholinesterase [4] = molecular target: T1, Acetylcholinesterase; remark: listed apart in the source
Description: Inhibitory concentration of compound against acetylcholinesterase from human erythrocytes at pH=7.0

Acetylcholinesterase [5] = molecular target: T1, Acetylcholinesterase; remark: listed apart in the source
Description: Inhibitory concentration of compound against acetylcholinesterase from human erythrocytes at pH=7.5

Acetylcholinesterase [6] = molecular target: T1, Acetylcholinesterase; remark: listed apart in the source
Description: Inhibitory concentration of compound against acetylcholinesterase from human erythrocytes at pH=8.0

Acetylcholinesterase [7] = molecular target: T1, Acetylcholinesterase; remark: listed apart in the source
Description: Inhibitory activity of compound against acetylcholinesterase from human erythrocytes

Chain of Cholinesterase (P06276 whole entry): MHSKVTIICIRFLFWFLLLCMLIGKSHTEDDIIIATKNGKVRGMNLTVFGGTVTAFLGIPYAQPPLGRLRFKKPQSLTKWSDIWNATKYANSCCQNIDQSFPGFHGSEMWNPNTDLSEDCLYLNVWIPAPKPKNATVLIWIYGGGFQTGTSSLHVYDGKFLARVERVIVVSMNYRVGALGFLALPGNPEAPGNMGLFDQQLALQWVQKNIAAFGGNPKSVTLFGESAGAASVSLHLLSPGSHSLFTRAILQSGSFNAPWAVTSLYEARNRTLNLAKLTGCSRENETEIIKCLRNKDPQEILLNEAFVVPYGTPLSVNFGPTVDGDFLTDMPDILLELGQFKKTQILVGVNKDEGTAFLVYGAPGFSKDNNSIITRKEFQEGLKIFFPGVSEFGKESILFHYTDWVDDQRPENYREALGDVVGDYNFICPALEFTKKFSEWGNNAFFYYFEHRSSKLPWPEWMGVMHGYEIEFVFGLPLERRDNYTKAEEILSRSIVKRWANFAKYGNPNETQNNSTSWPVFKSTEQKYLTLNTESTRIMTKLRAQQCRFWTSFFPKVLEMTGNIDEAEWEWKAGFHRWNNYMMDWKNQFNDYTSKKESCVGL
T1 sequence (P22303 whole entry): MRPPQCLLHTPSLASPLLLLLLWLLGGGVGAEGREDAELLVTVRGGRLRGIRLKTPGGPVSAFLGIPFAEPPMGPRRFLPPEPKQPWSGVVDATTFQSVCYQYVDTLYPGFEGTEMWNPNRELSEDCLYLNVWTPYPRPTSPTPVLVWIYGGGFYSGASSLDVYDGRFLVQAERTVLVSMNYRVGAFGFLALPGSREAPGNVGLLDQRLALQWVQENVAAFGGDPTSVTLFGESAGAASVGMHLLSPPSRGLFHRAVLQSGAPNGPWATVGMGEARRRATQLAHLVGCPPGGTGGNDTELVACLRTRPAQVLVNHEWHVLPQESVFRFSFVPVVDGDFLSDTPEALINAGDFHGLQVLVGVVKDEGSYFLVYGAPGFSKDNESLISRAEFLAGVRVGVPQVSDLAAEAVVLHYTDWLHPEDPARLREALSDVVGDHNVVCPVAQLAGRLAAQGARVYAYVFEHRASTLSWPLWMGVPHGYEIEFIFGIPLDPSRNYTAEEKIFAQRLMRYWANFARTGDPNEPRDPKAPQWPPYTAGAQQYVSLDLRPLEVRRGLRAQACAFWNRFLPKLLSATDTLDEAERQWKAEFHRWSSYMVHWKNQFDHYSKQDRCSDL
Description for Cavia porcellus: Ability to reverse the D-tubocurarine-induced neuromuscular blockade in guinea pig left atrium

Compound	pKa [1]	IC50 (Acetylcholinesterase [2]) [nM]	IC50 (Cholinesterase) [nM]	pAI50 (Cavia porcellus)	pKb [3]	IC50 (Acetylcholinesterase [4]) [nM]	IC50 (Acetylcholinesterase [5]) [nM]	IC50 (Acetylcholinesterase [6]) [nM]	Ki (Acetylcholinesterase [7]) [nM]
CCCOc1ccccc1CN(CC)CCCCCC(=O)N(C)CCCCCCCCN(C)C(=O)CCCCCN(CC)Cc1ccccc1OCCC	7.75	33.9	166	6.19					
COc1ccc(CN(C)CCCCCC(=O)N(C)CCCCCCCCN(C)C(=O)CCCCCN(C)Cc2ccc(OC)cc2)cc1		5750	5500						
CCN(CCCCCC(=O)N(C)CCCCCCCCN(C)C(=O)CCCCCN(CC)Cc1ccccc1Cl)Cc1ccccc1Cl	6.92	112	4070	7.19	5.61				
CC[N+](C)(CCCCCC(=O)N(C)CCCCCCCCN(C)C(=O)CCCCC[N+](C)(CC)Cc1ccccc1)Cc1ccccc1 (configuration not stated)		37.2	2510						
CC[N+](C)(CCCCCC(=O)N(C)CCCCCCCCN(C)C(=O)CCCCC[N+](C)(CC)Cc1ccccc1OC)Cc1ccccc1OC (configuration not stated)		12	1410	7.21		11	11	12	
COc1cccc(CN(C)CCCCCC(=O)N(C)CCCCCCCCN(C)C(=O)CCCCCN(C)Cc2cccc(OC)c2)c1		676	8320						
CC[N+](C)(CCCCCC(=O)N(C)CCCCCCCCN(C)C(=O)CCCCC[N+](C)(CC)Cc1ccccc1C)Cc1ccccc1C (configuration not stated)		16.6	6460						
COc1ccccc1CN(CCCCCC(=O)N(C)CCCCCCCCN(C)C(=O)CCCCCN(Cc1ccccc1OC)C(C)C)C(C)C		72.4	871						
CCN(CCCCCC(=O)N(CCCCCCCCN(C(=O)CCCCCN(CC)Cc1ccccc1OC)C(C)C)C(C)C)Cc1ccccc1OC		18.2	2140						
CC[N+](C)(CCCCCC(=O)N(C)CCCCCCCCN(C)C(=O)CCCCC[N+](C)(CC)Cc1ccccc1[N+](=O)[O-])Cc1ccccc1[N+](=O)[O-] (configuration not stated)		12.3	2400			12.6	12.9	12.3	
CC[N+](C)(CCCCCC(=O)N(CCCCCCCCN(C(=O)CCCCC[N+](C)(CC)Cc1ccccc1OC)C(C)C)C(C)C)Cc1ccccc1OC (configuration not stated)		8.13	1660						
CCN(CCCCCC(=O)N(C)CCCCCCCCN(C)C(=O)CCCCCN(CC)Cc1ccccc1OC)Cc1ccccc1OC	7.8	18.6	2240	6.45	5.65	16.2	17.4	18.6	12.2
CC[N+](C)(CCCCCCOCCCCCCCCOCCCCCC[N+](C)(CC)Cc1ccccc1OC)Cc1ccccc1OC (configuration not stated)		77.6	759						
CCN(CCCCCC(=O)N(C)CCCCCCCCN(C)C(=O)CCCCCN(CC)Cc1ccccc1)Cc1ccccc1	7.42	49	1070	6.32					
CCN(CCCCCC(=O)N(C)CCCCCCCCN(C)C(=O)CCCCCN(CC)Cc1ccccc1[N+](=O)[O-])Cc1ccccc1[N+](=O)[O-]	6.26	794	55000	5.93		32.4	79.4	794	
CC[N+](C)(CCCCCC(=O)N(C)CCCCCCCCN(C)C(=O)CCCCC[N+](C)(CC)Cc1ccccc1C(F)(F)F)Cc1ccccc1C(F)(F)F (configuration not stated)		11.7	7590						
CC[N+](C)(CCCCCC(=O)N(C)CCCCCCCCN(C)C(=O)CCCCC[N+](C)(CC)Cc1ccccc1Cl)Cc1ccccc1Cl (configuration not stated)		19.5	2570						
CCN(CCCCCC(=O)N(C)CCCCCCCCN(C)C(=O)CCCCCN(CC)Cc1ccccc1C)Cc1ccccc1C	7.46	56.2	7410	6.35					
CCN(CCCCCC(=O)N(C)CCCCCCCCN(C)C(=O)CCCCCN(CC)Cc1ccccc1C(F)(F)F)Cc1ccccc1C(F)(F)F	6.15	4570	166000	6.84	< 5				
CNC(=O)Oc1ccc2c(c1)[C@]1(C)CCN(C)[C@@H]1N2C [PHYSOSTIGMINE]				6.5					
COc1ccccc1CN(C)CCCCCC(=O)N(C)CCCCCCCCN(C)C(=O)CCCCCN(C)Cc1ccccc1OC [CAPROCTAMINE]				5.79	6.39				104
CCN(CCCCCCOCCCCCCCCOCCCCCCN(CC)Cc1ccccc1OC)Cc1ccccc1OC		204	2630						
CCCOc1ccccc1C[N+](C)(CC)CCCCCC(=O)N(C)CCCCCCCCN(C)C(=O)CCCCC[N+](C)(CC)Cc1ccccc1OCCC (configuration not stated)		17.4	83.2						

Reference: ChEMBL document CHEMBL1136713, “Structure-activity relationships of acetylcholinesterase noncovalent inhibitors based on a polyamine backbone. 2. Role of the substituents on the phenyl ring and nitrogen atoms of caproctamine” (J Med Chem, 2003)
